ChEMBL document CHEMBL3045559, “Natural-product-based chromenes as a novel class of potential termiticides” (2011)

Key:
Type in all cases: functional
Coptotermes formosanus [1] = experiment: Termiticidal activity against Coptotermes formosanus (third-instar worker and soldier) assessed as mortality at 1% wt/wt at 26.6 degC, 100% RH measured after 18 days (Rvb= 1.3 +/- 2.5%)
Coptotermes formosanus [2] = experiment: Termiticidal activity against Coptotermes formosanus (third-instar worker and soldier) assessed as mortality at 1% wt/wt at 26.6 degC, 100% RH measured after 4 days (Rvb= 0%)
Coptotermes formosanus [3] = experiment: Termiticidal activity against Coptotermes formosanus (third-instar worker and soldier) assessed as mortality at 1% wt/wt at 26.6 degC, 100% RH measured after 15 days (Rvb= 1.3 +/- 2.5 to 5 +/- 4.1%)
Coptotermes formosanus [4] = experiment: Termiticidal activity against Coptotermes formosanus (third-instar worker and soldier) assessed as mortality at 1% wt/wt at 26.6 degC, 100% RH measured after 11 days (Rvb= 1.3 +/- 2.5%)
Coptotermes formosanus [5] = experiment: Termiticidal activity against Coptotermes formosanus (third-instar worker and soldier) assessed as mortality at 1% wt/wt at 26.6 degC, 100% RH measured after 8 days (Rvb= 1.3 +/- 2.5%)
Coptotermes formosanus [6] = experiment: Termiticidal activity against Coptotermes formosanus (third-instar worker and soldier) assessed as mortality at 1% wt/wt at 26.6 degC, 100% RH measured after 1 day (Rvb= 0%)
Coptotermes formosanus [7] = experiment: Termiticidal activity against Coptotermes formosanus (third-instar worker and soldier) assessed as mortality at 1% wt/wt at 26.6 degC, 100% RH measured after 21 days (Rvb= 1.3 +/- 2.5%)
Coptotermes formosanus [8] = experiment: Termiticidal activity against Coptotermes formosanus (third-instar worker and soldier) assessed as mortality at 1% wt/wt at 26.6 degC, 100% RH measured after 17 days (Rvb= 5 +/- 4.1%)
Coptotermes formosanus [9] = experiment: Termiticidal activity against Coptotermes formosanus (third-instar worker and soldier) assessed as mortality at 1% wt/wt at 26.6 degC, 100% RH measured after 9 days (Rvb= 3.8 +/- 4.8%)
Coptotermes formosanus [10] = experiment: Termiticidal activity against Coptotermes formosanus (third-instar worker and soldier) assessed as mortality at 1% wt/wt at 26.6 degC, 100% RH measured after 7 days (Rvb= 3.8 +/- 4.8%)
Coptotermes formosanus [11] = experiment: Termiticidal activity against Coptotermes formosanus (third-instar worker and soldier) assessed as mortality at 1% wt/wt at 26.6 degC, 100% RH measured after 21 days (Rvb= 1.3 +/- 2.5 to 5 +/- 4.1%)
Coptotermes formosanus [12] = experiment: Termiticidal activity against Coptotermes formosanus (third-instar worker and soldier) assessed as mortality at 0.5% wt/wt at 26.6 degC, 100% RH measured after 5 days
Coptotermes formosanus [13] = experiment: Termiticidal activity against Coptotermes formosanus (third-instar worker and soldier) assessed as mortality at 1% wt/wt at 26.6 degC, 100% RH measured after 3 days (Rvb= 0%)

Row | Structure (SMILES) | mortality (Coptotermes formosanus [1]) [%] | mortality (Coptotermes formosanus [2]) [%] | mortality (Coptotermes formosanus [3]) [%] | mortality (Coptotermes formosanus [4]) [%] | mortality (Coptotermes formosanus [5]) [%] | mortality (Coptotermes formosanus [6]) [%] | mortality (Coptotermes formosanus [7]) [%] | mortality (Coptotermes formosanus [8]) [%] | mortality (Coptotermes formosanus [9]) [%] | mortality (Coptotermes formosanus [10]) [%] | mortality (Coptotermes formosanus [11]) [%] | mortality (Coptotermes formosanus [12]) [%] | mortality (Coptotermes formosanus [13]) [%]
1 | CC1(C)C=Cc2cc(CCO)ccc2O1 | 71.3 | 10 | 70 | 56.3 | 33.8 | 0 | 73.8 |  |  |  |  |  | 
2 | CC1(C)C=Cc2cc(C(=O)O)ccc2O1 | 1.3 | 0 | 1.3 | 0 | 0 | 0 | 2.5 |  |  |  |  |  | 
3 | CC1(C)C=Cc2cc(C=O)ccc2O1 | 98.8 | 62.5 | 98.8 | 93.8 | 81.3 | 51.3 | 98.8 |  |  |  |  |  | 
4 | COC(=O)c1cccc2c1C=CC(C)(C)O2 | 100 | 87.5 | 100 | 100 | 97.5 | 0 | 100 |  |  |  |  |  | 
5 | CC(C)NCCc1ccc2c(c1)C=CC(C)(C)O2.Cl | 8.8 | 3.8 | 7.5 | 5 | 3.8 | 3.75 | 15 |  |  |  |  |  | 
6 | CC(C)NCc1ccc2c(c1)C=CC(C)(C)O2.Cl | 88.8 | 20 | 80 | 72.5 | 55 | 8.8 | 88.8 |  |  |  |  |  | 
7 | COC(=O)Cc1ccc2c(c1)C=CC(C)(C)O2 | 100 | 82.5 | 100 | 100 | 92.5 | 12.5 | 100 |  |  |  |  |  | 
8 | CC1(C)C=Cc2ccc(CO)cc2O1 | 100 | 100 | 100 | 100 | 100 | 26.3 | 100 |  |  |  |  |  | 
9 | COC(=O)c1ccc2c(c1)C=CC(C)(C)O2 | 100 | 92.5 | 100 | 100 | 100 | 3.75 | 100 |  |  |  |  |  | 
10 | CC(C)CC(=O)N(C)CCC1=CC2C=CC(C)(C)OC2C=C1 (configuration not stated) | 32.5 | 32.5 | 32.5 | 32.5 | 32.5 | 6.3 | 32.5 |  |  |  |  |  | 
11 | COC(=O)c1ccc2c(c1)OC(C)(C)C=C2 | 100 | 100 | 100 | 100 | 100 | 32.5 | 100 |  |  |  |  |  | 
12 | CC1(C)C=Cc2cc(CO)ccc2O1 [EULATACHROMENE] | 100 | 40 | 100 | 100 | 92.5 | 1.3 | 100 |  |  |  |  |  | 
13 | CC(=O)c1ccc2c(c1O)C=CC(C)(C)O2 |  |  | 100 |  |  | 0 |  | 100 | 98.8 | 66.3 | 100 | 100 | 1.3
14 | CNCCc1ccc2c(c1)C=CC(C)(C)O2.Cl | 2.5 | 0 | 2.5 | 1.3 | 0 | 0 | 3.8 |  |  |  |  |  | 
15 | COC(=O)c1ccc(OC)c2c1OC(C)(C)C=C2 |  |  | 96.3 |  |  | 0 |  | 100 | 61.3 | 30 | 100 | 100 | 2.5
16 | CC1(C)C=Cc2cc3c(cc2O1)OCO3 [6,6-DIMETHYL-6H-[1,3]DIOXOLO[4,5-G]CHROMENE] |  |  | 75 |  |  | 0 |  | 82.5 | 23.8 | 12.5 | 85 |  | 2.5
17 | CC1(C)C=Cc2c(CO)cccc2O1 | 100 | 100 | 100 | 100 | 100 | 41.3 | 100 |  |  |  |  | 100 | 
